Reference: US20260242768A1, “ACETYL-COENZYME A CARBOXYLASE MUTANTS” (CIBUS US LLC, priority 2023, published 2026)

Assays:
[1] = test system: rice (Oryza sativa) plastidal ACCase; experiment: Clethodim tolerance of rice ACCase mutations, yeast complementation assay (Examples 1-3); format: cell-based; conditions: for clethodim tolerance of combined mutations compared with single mutation(s) or parent mutant: double/triple mutants vs single mutations; for effect on clethodim tolerance of the single D2078G mutation: mutation added to D2078G; for clethodim tolerance: ACCase mutation tested with the herbicide clethodim
Excerpt: Joachimiak M. et al Proc Natl Acad Sci U.S.A. 1997 Sep. 2; 94 (18): 9990-5 and WO/2013/074524 and WO/2013/074524 each describe methods to complement a yeast (Saccharomyces cerevisiae) strain lacking the native acc1 gene with either a wt or mutated form of a chimeric plastidal ACCase gene from a plant such as rice (Oryza sativa). Methods to introduce one or more mutations listed herein into the chimeric ACCase gene and subsequently complement the acc1 lacking yeast strain are well known by an individual skilled in the art. In the art assays are known for measuring tolerance of a mutated plant ACCase gene versus a herbicide that is a member of the aryloxyphenoxypropanoate, cyclohexanedione, and/or phenylpyrazoline families of herbicides such as clethodim, sethoxydim, fluazifop, haloxyfop, quizalofop, and pinoxaden (Joachimiak M. et al Proc Natl Acad Sci U.S.A. 1997 Sep. 2; 94 (18): 9990-5 and WO/2013/074524).
A library of random mutations in the rice (Oryza sativa) plastidal ACCase gene was generated and screened for clethodim tolerant clones using a yeast complementation assay.

O. sativa ACCase = experiment: Growth of Saccharomyces cerevisiae pseudodiploid acc1Δ strains carrying wild-type or mutant OsACCase plasmids, streaked onto plates with increasing concentrations of clethodim (Examples 5, 7, 10; Tables 8, 12); format: cell-based, Oryza sativa; design: key to growth, 0 mM clethodim / growth, 0.025 mM clethodim / growth, 0.1 mM clethodim / growth, 0.25 mM clethodim / growth, 0.5 mM clethodim / growth, 1 mM clethodim: ++ = Strong growth; + = Poor growth; − = No growth; key to relative growth phenotype, 0.5 mM clethodim / relative growth phenotype, 1 mM clethodim / relative growth phenotype, 2 mM clethodim / relative growth phenotype, highGal / relative growth phenotype, lowGal / relative growth phenotype, 0.05 mM clethodim / relative growth phenotype, 0.1 mM clethodim / relative growth phenotype, 0.25 mM clethodim: +++ high growth; ++ moderate growth; + low to negligible growth; (−) some cell debris, no growth; − no growth or cell debris; conditions: for growth, 0 mM clethodim / growth, 0.025 mM clethodim / growth, 0.1 mM clethodim / growth, 0.25 mM clethodim / growth, 0.5 mM clethodim / growth, 1 mM clethodim: Table 12; for growth, 0 mM clethodim: plate with 0 mM clethodim; for growth, 0 mM clethodim / growth, 0.025 mM clethodim / growth, 0.1 mM clethodim / growth, 0.25 mM clethodim / growth, 0.5 mM clethodim / growth, 1 mM clethodim / relative growth phenotype, 0.05 mM clethodim / relative growth phenotype, 0.1 mM clethodim / relative growth phenotype, 0.25 mM clethodim / relative growth phenotype, 0.5 mM clethodim / relative growth phenotype, 1 mM clethodim / relative growth phenotype, 2 mM clethodim: galactose 0.01%; for growth, 0.025 mM clethodim: plate with 0.025 mM clethodim; for growth, 0.1 mM clethodim / relative growth phenotype, 0.1 mM clethodim: plate with 0.1 mM clethodim; for growth, 0.25 mM clethodim / relative growth phenotype, 0.25 mM clethodim: plate with 0.25 mM clethodim; for growth, 0.5 mM clethodim / relative growth phenotype, 0.5 mM clethodim: plate with 0.5 mM clethodim; for growth, 1 mM clethodim / relative growth phenotype, 1 mM clethodim: plate with 1 mM clethodim; for relative growth phenotype, 0.05 mM clethodim: plate with 0.05 mM clethodim; for relative growth phenotype, 2 mM clethodim: plate with 2 mM clethodim; for relative growth phenotype, highGal / relative growth phenotype, lowGal: yeast acc1Δ strain with OsACCase plasmid, no clethodim; for relative growth phenotype, highGal: high galactose plate; for relative growth phenotype, lowGal: low galactose plate; for clethodim tolerance compared to the wild-type (wt) control strain: Example 5
Excerpt: Mutations at position N2097S and V2098A were combined to determine if point mutations at both positions gave increased resistance compared to either single point mutation. Each of these respective mutations (N2097S, V2098A and N2097S/V2098A) were generated by standard methods and introduced into a Saccharomyces cerevisiae pseudodiploid acc1Δ strain with a plasmid containing wild-type O. sativa ACCase gene. Once each of these mutations were introduced by recombination mediated mutagenesis, the OsACCase wild-type plasmid was removed, and mutation strains were confirmed by sequencing. The three strains, along with a series of controls including a WT strain (negative control), an I1781L mutant strain, and a D2078G mutant strain (positive control), were streaked onto plates with increasing concentrations of clethodim. […] These observations argue that N2097S is an enhancer of V2098A tolerance.
Edits at position S1784N and A1785G were combined to determine if point mutations at both of these two positions gave increased resistance compared to either single point mutation. Each of these respective mutations (S1784N, A1785G and S1784N/A1785G) were generated by standard methods and introduced into a Saccharomyces cerevisiae pseudodiploid acc1Δ strain with a plasmid containing wild-type O. sativa ACCase gene. Once each of these mutations were introduced by recombination mediated mutagenesis, the OsACCase wild-type plasmid was removed, and mutation strains were confirmed by sequencing. The three strains, along with a series of controls including a WT strain (negative control), an I1781L mutant strain, a D2078G mutant strain (positive control), and a V2075L mutant strain were streaked onto plates with increasing concentrations of clethodim.
Each of these respective mutations (D2078G, P2083T, D2078G/P2083T) were generated by standard methods and introduced into a Saccharomyces cerevisiae pseudodiploid acc14 strain with a plasmid containing the wild-type O. sativa ACCase gene. Once plasmids bearing each of these mutations, introduced using recombination-mediated mutagenesis, the OsACCase wild-type plasmid was removed, and strains bearing each mutant plasmid were confirmed by sequencing. The three strains, along with a series of controls including a wild-type strain (negative control), an I1781L mutant strain (medium control), and a pre-existing D2078G mutant strain (positive control) were streaked onto plates with increasing concentrations of clethodim.

[2] = plates with increasing clethodim, 0.01% galactose
[3] = Example 10, highest concentration tested 1 mM, 0.01% galactose

L1543V-D1681E: double mutant ACCase
clethodim tolerance of combined mutations compared with single mutation(s) or parent mutant [1]: increased clethodim tolerance compared to any one mutation alone

N2097S/V2098A: double mutant ACCase
tolerance/resistance of double mutant compared with single mutation(s) (O. sativa ACCase; [2]): notably increased compared to the V2098A change alone

V2075L/N2097D: double mutant ACCase
clethodim tolerance of combined mutations compared with single mutation(s) or parent mutant [1]: either less, or no more, tolerant than the single D2078G, V2075L and V2098A mutations

P2083T: mutated ACCase, numbering per SEQ ID NO: 2
growth, 0 mM clethodim (O. sativa ACCase): ++ | growth, 0.025 mM clethodim (O. sativa ACCase): − | growth, 0.1 mM clethodim (O. sativa ACCase): − | growth, 0.25 mM clethodim (O. sativa ACCase): − | growth, 0.5 mM clethodim (O. sativa ACCase): − | growth, 1 mM clethodim (O. sativa ACCase): − | growth on clethodim plates (in words) (O. sativa ACCase; [2]): unable to grow on all concentrations of clethodim tested

M1975T: mutated ACCase, numbering per SEQ ID NO: 2
effect on clethodim tolerance of the single D2078G mutation [1]: neither M1975T nor M2257I provide detectable clethodim tolerance increase to the single D2078G mutation

L1543F-D1681G: double mutant ACCase
clethodim tolerance of combined mutations compared with single mutation(s) or parent mutant [1]: increased clethodim tolerance compared to any one mutation alone

S1784N plus L1818H: double mutant ACCase
clethodim tolerance of combined mutations compared with single mutation(s) or parent mutant [1]: improves tolerance in comparison to either single mutation

D1681E: mutated ACCase, numbering per SEQ ID NO: 2
clethodim tolerance [1]: measurable clethodim tolerance

R1672I: mutated ACCase, numbering per SEQ ID NO: 2
clethodim tolerance [1]: neither R1672I nor M1974T alone provide measurable tolerance | effect on clethodim tolerance of the single D2078G mutation [1]: increase tolerance of the single D2078G mutation

A1785G: mutated ACCase, numbering per SEQ ID NO: 2
relative growth phenotype, 0.05 mM clethodim (O. sativa ACCase): (−) | relative growth phenotype, 0.1 mM clethodim (O. sativa ACCase): (−) | relative growth phenotype, 0.25 mM clethodim (O. sativa ACCase): − | relative growth phenotype, 0.5 mM clethodim (O. sativa ACCase): − | relative growth phenotype, 1 mM clethodim (O. sativa ACCase): − | relative growth phenotype, 2 mM clethodim (O. sativa ACCase): − | relative growth phenotype, highGal (O. sativa ACCase): +++ | relative growth phenotype, lowGal (O. sativa ACCase): +++ | clethodim tolerance [1]: no detectable clethodim tolerance

C2088M: mutated ACCase, numbering per SEQ ID NO: 2
clethodim tolerance [1]: produces measurable tolerance

L1818I: mutated ACCase, numbering per SEQ ID NO: 2
clethodim tolerance [1]: measurable clethodim tolerance

L1818H: mutated ACCase, numbering per SEQ ID NO: 2
clethodim tolerance [1]: measurable clethodim tolerance

I1781L: mutated ACCase, numbering per SEQ ID NO: 2; moderate-resistance control
clethodim tolerance compared to the wild-type (wt) control strain (O. sativa ACCase; [2]): did produce tolerance | clethodim concentrations on which the strain grew poorly (O. sativa ACCase; [3]): up to 0.25 mM | clethodim concentrations on which the strain grew well (O. sativa ACCase; [3]): up to 0.1 mM | growth, 0 mM clethodim (O. sativa ACCase): ++ | growth, 0.025 mM clethodim (O. sativa ACCase): ++ | growth, 0.1 mM clethodim (O. sativa ACCase): ++ | growth, 0.25 mM clethodim (O. sativa ACCase): + | growth, 0.5 mM clethodim (O. sativa ACCase): − | growth, 1 mM clethodim (O. sativa ACCase): − | relative growth phenotype, 0.05 mM clethodim (O. sativa ACCase): +++ | relative growth phenotype, 0.1 mM clethodim (O. sativa ACCase): +++ | relative growth phenotype, 0.25 mM clethodim (O. sativa ACCase): ++ | relative growth phenotype, 0.5 mM clethodim (O. sativa ACCase): (−) | relative growth phenotype, 1 mM clethodim (O. sativa ACCase): (−) | relative growth phenotype, 2 mM clethodim (O. sativa ACCase): (−) | growth on clethodim plates (in words) (O. sativa ACCase; [2]): consistent with moderate resistance | relative growth phenotype, highGal (O. sativa ACCase): +++ | relative growth phenotype, lowGal (O. sativa ACCase): +++ | clethodim tolerance [1]: produces tolerance

S1784N: mutated ACCase, numbering per SEQ ID NO: 2
relative growth phenotype, 0.05 mM clethodim (O. sativa ACCase): +++ | relative growth phenotype, 0.1 mM clethodim (O. sativa ACCase): +++ | relative growth phenotype, 0.25 mM clethodim (O. sativa ACCase): + | relative growth phenotype, 0.5 mM clethodim (O. sativa ACCase): (−) | relative growth phenotype, 1 mM clethodim (O. sativa ACCase): (−) | relative growth phenotype, 2 mM clethodim (O. sativa ACCase): (−) | relative growth phenotype, highGal (O. sativa ACCase): +++ | relative growth phenotype, lowGal (O. sativa ACCase): +++ | clethodim tolerance [1]: measurable clethodim tolerance

V2098A: mutated ACCase, numbering per SEQ ID NO: 2
clethodim tolerance compared to the wild-type (wt) control strain (O. sativa ACCase; [2]): did produce tolerance | clethodim tolerance [1]: measurable clethodim tolerance

L1543F-D1681E: double mutant ACCase
clethodim tolerance of combined mutations compared with single mutation(s) or parent mutant [1]: increased clethodim tolerance compared to any one mutation alone

M1974T: mutated ACCase, numbering per SEQ ID NO: 2
clethodim tolerance [1]: neither R1672I nor M1974T alone provide measurable tolerance | effect on clethodim tolerance of the single D2078G mutation [1]: increase tolerance of the single D2078G mutation

M1974T-D2078G: double mutant ACCase
clethodim tolerance of combined mutations compared with single mutation(s) or parent mutant [1]: tolerance that is similar to the corresponding original triple mutants

L1543V: mutated ACCase, numbering per SEQ ID NO: 2
clethodim tolerance [1]: measurable clethodim tolerance

L1543V-D1681G: double mutant ACCase
clethodim tolerance of combined mutations compared with single mutation(s) or parent mutant [1]: increased clethodim tolerance compared to any one mutation alone

R1672I/M1975T/D2078G: triple mutant ACCase clone
clethodim tolerance of combined mutations compared with single mutation(s) or parent mutant [1]: increased clethodim tolerance compared to the single D2078G mutation

V2098A/N2097D: double mutant ACCase
clethodim tolerance of combined mutations compared with single mutation(s) or parent mutant [1]: either less, or no more, tolerant than the single D2078G, V2075L and V2098A mutations

R1672I-D2078G: double mutant ACCase
clethodim tolerance of combined mutations compared with single mutation(s) or parent mutant [1]: tolerance that is similar to the corresponding original triple mutants

D2078G/N2097S: double mutant ACCase
clethodim tolerance of combined mutations compared with single mutation(s) or parent mutant [1]: either less, or no more, tolerant than the single D2078G, V2075L and V2098A mutations

S1784N/A1785G: double mutant ACCase
clethodim concentrations on which the strain grew (O. sativa ACCase; Example 7, plates with increasing clethodim, 0.01% galactose): up to 1 mM | relative growth phenotype, 0.05 mM clethodim (O. sativa ACCase): +++ | relative growth phenotype, 0.1 mM clethodim (O. sativa ACCase): +++ | relative growth phenotype, 0.25 mM clethodim (O. sativa ACCase): +++ | relative growth phenotype, 0.5 mM clethodim (O. sativa ACCase): +++ | relative growth phenotype, 1 mM clethodim (O. sativa ACCase): + | relative growth phenotype, 2 mM clethodim (O. sativa ACCase): (−) | tolerance/resistance of double mutant compared with single mutation(s) (O. sativa ACCase; [2]): superior in terms of resistance to either individual mutation | relative growth phenotype, highGal (O. sativa ACCase): +++ | relative growth phenotype, lowGal (O. sativa ACCase): +++

L1543F: mutated ACCase, numbering per SEQ ID NO: 2
clethodim tolerance [1]: measurable clethodim tolerance

S1784G: mutated ACCase, numbering per SEQ ID NO: 2
clethodim tolerance [1]: measurable clethodim tolerance

D1681G: mutated ACCase, numbering per SEQ ID NO: 2
clethodim tolerance [1]: measurable clethodim tolerance
